Test results from patent publication US7135466B2 (Kirin Beer Kabushiki Kaisha, priority 1999, dated 2006).
Like-named read-outs stand apart in the source and are kept apart here.

How the values were obtained:
[1] = biological target: T1, PDGF-Ra (Homo sapiens, UniProt P16234); assay: Inhibitory activity against PDGF-Ra phosphorylation by PDGF-AA stimulation using G292; type: cell-based; details: for IC50: > means inhibition at indicated concentration not more than 50%, < and << not less than 50%, read-out: PDGF (E) IC50; for inhibition at 0.1 µM: G292, figure within parentheses in >100( ), at 100 nM, read-out: PDGF (E) inhibition (%) at 100 nM
T1 construct: host or cells: G-292 human osteosarcoma cells
T1 sequence (P16234 24-1089): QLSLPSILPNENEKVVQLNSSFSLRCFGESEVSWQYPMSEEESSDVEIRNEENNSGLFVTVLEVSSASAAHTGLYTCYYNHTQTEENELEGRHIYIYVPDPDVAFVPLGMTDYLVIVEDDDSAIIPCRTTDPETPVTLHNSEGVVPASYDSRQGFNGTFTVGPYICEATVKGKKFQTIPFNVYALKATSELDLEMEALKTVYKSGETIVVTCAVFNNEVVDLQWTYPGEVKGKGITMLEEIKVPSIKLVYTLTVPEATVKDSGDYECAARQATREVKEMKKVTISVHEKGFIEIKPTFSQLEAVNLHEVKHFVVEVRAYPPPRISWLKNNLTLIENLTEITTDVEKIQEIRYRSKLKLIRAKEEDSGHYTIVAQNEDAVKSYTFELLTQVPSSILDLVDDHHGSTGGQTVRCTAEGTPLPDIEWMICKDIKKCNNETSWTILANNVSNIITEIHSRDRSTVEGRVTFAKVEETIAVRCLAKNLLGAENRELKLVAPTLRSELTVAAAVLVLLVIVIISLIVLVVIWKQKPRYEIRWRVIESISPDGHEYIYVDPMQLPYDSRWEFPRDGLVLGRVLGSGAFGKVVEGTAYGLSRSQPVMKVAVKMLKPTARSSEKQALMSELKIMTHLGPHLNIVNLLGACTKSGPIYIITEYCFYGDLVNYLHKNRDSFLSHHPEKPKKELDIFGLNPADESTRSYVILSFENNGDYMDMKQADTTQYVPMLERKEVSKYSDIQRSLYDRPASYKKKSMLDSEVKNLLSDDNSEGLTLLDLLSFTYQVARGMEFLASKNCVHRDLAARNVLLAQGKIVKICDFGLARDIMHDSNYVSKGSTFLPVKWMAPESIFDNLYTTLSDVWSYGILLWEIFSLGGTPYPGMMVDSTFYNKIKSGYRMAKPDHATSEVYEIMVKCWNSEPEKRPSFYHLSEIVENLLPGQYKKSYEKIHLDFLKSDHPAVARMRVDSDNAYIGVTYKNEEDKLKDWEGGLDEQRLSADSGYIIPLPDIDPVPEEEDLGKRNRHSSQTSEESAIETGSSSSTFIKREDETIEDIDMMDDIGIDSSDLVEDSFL
Procedure, shortened: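 G-292 human osteosarcoma cells in 0.1% FBS medium overnight, given compound for 1 hr at 37° C, then PDGF-AA 50 ng/ml for 5 min. Lysates captured on anti-phosphotyrosine (PY-20) plates and probed with anti-PDGF-Ra plus HRP secondary; absorbance at 450 nm.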

[2] = biological target: T2, c-kit (Homo sapiens, UniProt P10721); assay: Inhibitory activity against c-kit autophosphorylation (MO7e cells, h-SCF); type: cell-based; details: for IC50: MO7e cells, read-out: c-kit IC50; for inhibition at 1 µM: Mo7e, at 1000 nM
T2 construct: MO7e (human megakaryocytic leukemia cell line) which had been arrested for 20 hr; endogenous in cells; host or cells: MO7e human megakaryocytic leukemia cell line
T2 sequence (P10721 26-976): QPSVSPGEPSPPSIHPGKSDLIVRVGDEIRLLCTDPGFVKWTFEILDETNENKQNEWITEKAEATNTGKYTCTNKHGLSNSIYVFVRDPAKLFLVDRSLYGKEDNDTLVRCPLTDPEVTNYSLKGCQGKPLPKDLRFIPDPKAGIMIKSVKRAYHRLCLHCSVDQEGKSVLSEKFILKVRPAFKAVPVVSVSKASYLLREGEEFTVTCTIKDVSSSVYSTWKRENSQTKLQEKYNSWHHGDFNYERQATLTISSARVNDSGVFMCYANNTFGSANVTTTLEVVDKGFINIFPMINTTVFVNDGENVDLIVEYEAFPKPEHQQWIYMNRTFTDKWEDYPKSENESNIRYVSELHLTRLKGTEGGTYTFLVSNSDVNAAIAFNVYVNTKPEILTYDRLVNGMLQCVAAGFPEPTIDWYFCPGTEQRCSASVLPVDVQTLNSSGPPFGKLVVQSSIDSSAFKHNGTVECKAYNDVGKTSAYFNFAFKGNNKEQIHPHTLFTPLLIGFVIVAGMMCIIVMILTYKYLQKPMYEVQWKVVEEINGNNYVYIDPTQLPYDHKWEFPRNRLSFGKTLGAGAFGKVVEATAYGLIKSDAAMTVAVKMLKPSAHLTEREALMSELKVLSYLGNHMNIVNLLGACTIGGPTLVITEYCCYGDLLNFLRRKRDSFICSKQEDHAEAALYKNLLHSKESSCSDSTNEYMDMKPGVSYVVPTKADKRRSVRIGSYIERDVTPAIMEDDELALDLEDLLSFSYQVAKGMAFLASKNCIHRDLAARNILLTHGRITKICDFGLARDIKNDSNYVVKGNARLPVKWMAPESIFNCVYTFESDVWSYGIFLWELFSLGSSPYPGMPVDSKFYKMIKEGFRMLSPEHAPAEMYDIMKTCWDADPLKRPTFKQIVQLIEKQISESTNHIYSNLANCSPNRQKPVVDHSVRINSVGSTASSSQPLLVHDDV
Procedure, shortened: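 First, human megakaryocytic leukemia MO7e cells arrested 20 hr receive compound for one hour. Second, SCF stimulation (50 ng/ml) runs 5 min, after which cells are solubilized. Third, tyrosine-phosphorylated c-kit in the lysate is quantified by sandwich ELISA with absorbance at 450 nm.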

[3] = figure within parentheses in −( ) or >1000( )

Structure (SMILES) | IC50 [1] | IC50 ([1]; Pharmacological Test Example 1) | IC50 ([2]; h-SCF 50 ng/ml) | also measured
CCN(CC)CCNC(=O)Nc1ccc(Oc2ccnc3cc(OC)c(OC)cc23)c(C)c1 [Example 648, N-[2-(Diethylamino)ethyl]-N′-{4-[(6,7-dimethoxy-4-quinolyl)oxy]-3-methylphenyl}urea] | 16 nM | – | – | IC50 ([2]; 50 ng/ml h-SCF): 937 nM
COc1cc2ncnc(Oc3ccc(NC(=S)NC(=O)C4CC4C)cc3)c2cc1OC (stereo not drawn) [Example 1191, N-{4-[(6,7-Dimethoxy-4-quinazolinyl)oxy]phenyl}-N′-[(2-methylcyclopropyl)carbonyl]thiourea] | 31 nM | – | – | IC50 ([2]; h-SCF stimulation): 193 nM
COc1cc2ncnc(Oc3ccc(NC(=O)NC4CCN(Cc5ccccc5)CC4)c([N+](=O)[O-])c3)c2cc1OC [Example 640, N-(1-Benzyl-4-piperidyl)-N′-{4-[(6,7-dimethoxy-4-quinazolinyl)oxy]-2-nitrophenyl}urea] | 35 nM | – | – | IC50 ([2]; 50 ng/ml h-SCF): 254 nM
COc1ccc(OC)c(COC(=O)Nc2ccc(Oc3ncnc4cc(OC)c(OC)cc34)cc2Cl)c1 [Example 71, 2,5-Dimethoxybenzyl N-{2-chloro-4-[(6,7-dimethoxy-4-quinazolinyl)oxy]phenyl}carbamate] | – | 38 nM | – | inhibition at 1 µM ([2]; figure in parentheses in −( )): 34%
CCCCN(CCCC)C(C)CNC(=S)Nc1ccc(Oc2ncnc3cc(OC)c(OC)cc23)cc1 (stereo not drawn) [Example 532, N-{4-[(6,7-Dimethoxy-4-quinazolinyl)oxy]phenyl}-N′-(2-dibutylaminopropyl)thiourea] | > 100 nM | – | – | inhibition at 0.1 µM [1]: 44%; IC50 ([2]; 50 ng/ml h-SCF): 752 nM
COc1cc2ncnc(Oc3ccc(NC(=S)NC(=O)c4ccc(C)nc4)cc3)c2cc1OC [Example 1154, N-{4-[(6,7-Dimethoxy-4-quinazolinyl)oxy]phenyl}-N′-[(6-methyl-3-pyridyl)carbonyl]thiourea] | 49 nM | – | – | inhibition at 1 µM ([2]; figure in parentheses in −( )): 21%
COc1cc2ncnc(Oc3ccc(N)c(N4CCOCC4)c3)c2cc1OC [Example 1150] | 51 nM | – | – | IC50 ([2]; h-SCF stimulation): 192 nM
COc1cc2ncnc(Oc3ccc(NC(=S)NCCCN4CCOCC4)cc3)c2cc1OC [Example 533, N-{4-[(6,7-Dimethoxy-4-quinazolinyl)oxy]phenyl}-N′-[3-(1-morpholino)propyl]thiourea] | 64 nM | – | – | IC50 ([2]; 50 ng/ml h-SCF): 623 nM
COc1cc2ncnc(Oc3cc(C)c(NC(=O)OC4CCCCC4)cc3C)c2cc1OC [Example 390, Cyclohexyl N-{4-[(6,7-dimethoxy-4-quinazolinyl)oxy]-2,5-dimethylphenyl}carbamate] | – | 33 nM | 400 nM | –
CCN(CC)CCNC(=O)Nc1ccc(Oc2ncnc3cc(OC)c(OC)cc23)cc1Cl [Example 645, N-{2-Chloro-4-[(6,7-dimethoxy-4-quinazolinyl)oxy]phenyl}-N′-[2-(diethylamino)ethyl]urea] | 23 nM | – | – | inhibition at 1 µM [2, 3]: 32%
COc1cc2nccc(Oc3ccc(NC(=O)Oc4ccccc4OC)cc3)c2cc1OC [Example 260, 2-Methoxyphenyl N-{4-[(6,7-dimethoxy-4-quinolyl)oxy]phenyl}carbamate] | – | 6 nM | 180 nM | –
COc1cc2ncnc(Oc3ccc(NC(=S)NCCN(C(C)C)C(C)C)cc3)c2cc1OC [Example 535, N-{4-[(6,7-Dimethoxy-4-quinazolinyl)oxy]phenyl}-N′-(2-diisopropylaminoethyl)thiourea] | 32 nM | – | – | inhibition at 1 µM [2, 3]: 27%
C=CCOC(=O)Nc1ccc(Oc2ncnc3cc(OC)c(OC)cc23)cc1 [Example 375, Allyl N-{4-[(6,7-dimethoxy-4-quinazolinyl)oxy]phenyl}carbamate] | – | 74 nM | 144 nM | –
CCCCCCOC(=O)Nc1cc(C)c(Oc2ccnc3cc(OC)c(OC)cc23)cc1C [Example 262, Hexyl N-{4-[(6,7-dimethoxy-4-quinolyl)oxy]-2,5-dimethylphenyl}carbamate] | – | 7 nM | 83 nM | –

Now from value to compound, other results behind:

IC50 [1] | IC50 ([1]; Pharmacological Test Example 1) | IC50 ([2]; h-SCF 50 ng/ml) | Structure (SMILES) | also measured
– | 33 nM | 746 nM | COc1cc2nccc(Oc3ccc(NC(=O)OC(C)c4cccc(Br)c4)c(C)c3C)c2cc1OC (stereo not drawn) [Example 118, 1-(3-Bromophenyl)ethyl N-{4-[(6,7-dimethoxy-4-quinolyl)oxy]-2,3-dimethylphenyl}carbamate] | –
– | < 10 nM | 121 nM | COc1cc2nccc(Oc3ccc(NC(=O)OCC4CCCCC4)cc3)c2cc1OC [Example 283, Cyclohexylmethyl N-{4-[(6,7-dimethoxy-4-quinolyl)oxy]phenyl}carbamate] | –
< 3 nM | – | – | COc1cc2nccc(Oc3ccc(NCCCOc4ccccc4)cc3)c2cc1OC [Example 885, N-{4-[(6,7-Dimethoxy-4-quinolyl)oxy]phenyl}-N-(3-phenoxypropyl)amine] | IC50 ([2]; h-SCF stimulation): 420 nM
> 100 nM | – | – | COc1cc2nccc(Oc3ccc(NC(=O)NC4CCN(Cc5ccccc5)CC4)cc3Cl)c2cc1OC [Example 644, N-(1-Benzyl-4-piperidyl)-N′-{3-chloro-4-[(6,7-dimethoxy-4-quinolyl)oxy]phenyl}urea] | inhibition at 0.1 µM [1]: 17%; inhibition at 1 µM [2, 3]: 14%
< 10 nM | – | – | COc1cccc(NCCOc2ccc(Oc3ccnc4cc(OC)c(OC)cc34)cc2)c1 [Example 779, N-(2-{4-[(6,7-Dimethoxy-4-quinolyl)oxy]phenoxy}ethyl)-N-(3-methoxyphenyl)amine] | IC50 ([2]; 50 ng/ml h-SCF): 107 nM
– | 28 nM | 79 nM | COc1cc2nccc(Oc3ccc(NC(=O)OCCOc4ccccc4F)c(C)c3C)c2cc1OC [Example 204, 2-(2-Fluorophenoxy)ethyl N-{4-[(6,7-dimethoxy-4-quinolyl)oxy]-2,3-dimethylphenyl}carbamate] | –
– | 11 nM | 821 nM | COc1cc2nccc(Oc3ccc(NC(=O)OC(C)c4ccccc4F)cc3)c2cc1OC (stereo not drawn) [Example 122, 1-(2-Fluorophenyl)ethyl N-{4-[(6,7-dimethoxy-4-quinolyl)oxy]phenyl}carbamate] | –
– | 65 nM | 602 nM | COc1cc2nccc(Oc3cc(C)c(NC(=O)OC(C)c4ccccc4Br)cc3C)c2cc1OC (stereo not drawn) [Example 114, 1-(2-Bromophenyl)ethyl N-{4-[(6,7-dimethoxy-4-quinolyl)oxy]-2,5-dimethylphenyl}carbamate] | –
– | < 10 nM | 185 nM | COc1cccc(OCCCOC(=O)Nc2cc(C)c(Oc3ccnc4cc(OC)c(OC)cc34)cc2C)c1 [Example 163, 3-(3-Methoxyphenoxy)propyl N-{4-[(6,7-dimethoxy-4-quinolyl)oxy]-2,5-dimethylphenyl}carbamate] | –
– | 4 nM | 184 nM | COc1cc2nccc(Oc3ccc(NC(=O)OCc4ccccc4C)cc3)c2cc1OC [Example 250, 2-Methylbenzyl N-{4-[(6,7-dimethoxy-4-quinolyl)oxy]phenyl}carbamate] | –
< 10 nM | – | – | COc1cc2nccc(Oc3ccc(OCCCOc4ccc(F)cc4)cc3)c2cc1OC [Example 798, 4-{4-[3-(4-Fluorophenoxy)propoxy]phenoxy}-6,7-dimethoxyquinoline] | IC50 ([2]; 50 ng/ml h-SCF): 439 nM
– | 23 nM | 362 nM | COc1ccc(C(C)OC(=O)Nc2ccc(Oc3ccnc4cc(OC)c(OC)cc34)c(C)c2C)cc1 (stereo not drawn) [Example 33, 1-(4-Methoxyphenyl)ethyl N-{4-[(6,7-dimethoxy-4-quinolyl)oxy]-2,3-dimethylphenyl}carbamate] | –
– | < 10 nM | 119 nM | COc1cc2nccc(Oc3cc(C)c(NC(=O)OCCc4ccccc4)cc3C)c2cc1OC [Example 298, Phenethyl N-{4-[(6,7-dimethoxy-4-quinolyl)oxy]-2,5-dimethylphenyl}carbamate] | –
– | < 10 nM | 109 nM | COc1cc2ncnc(Oc3ccc(NC(=O)OCCCOc4ccccc4Cl)c(Cl)c3)c2cc1OC [Example 20, 3-(2-Chlorophenoxy)propyl N-{2-chloro-4-[(6,7-dimethoxy-4-quinazolinyl)oxy]phenyl}carbamate] | –
15 nM | – | – | COc1cc2nccc(Oc3ccc(OCCCOc4ccccc4F)cc3)c2cc1OC [Example 796, 4-{4-[3-(2-Fluorophenoxy)propoxy]phenoxy}-6,7-dimethoxyquinoline] | IC50 ([2]; 50 ng/ml h-SCF): 394 nM
– | 13 nM | 294 nM | COc1ccc(OC)c(COC(=O)Nc2ccc(Oc3ccnc4cc(OC)c(OC)cc34)c(C)c2C)c1 [Example 68, 2,5-Dimethoxybenzyl N-{4-[(6,7-dimethoxy-4-quinolyl)oxy]-2,3-dimethylphenyl}carbamate] | –
– | 4 nM | 47 nM | COc1cc2nccc(Oc3ccc(NC(=O)OCc4cccc(Cl)c4)c(C)c3C)c2cc1OC [Example 236, 3-Chlorobenzyl N-{4-[(6,7-dimethoxy-4-quinolyl)oxy]-2,3-dimethylphenyl}carbamate] | –
> 100 nM | – | – | COc1cc2nccc(Oc3ccc(NC(=S)NC(=O)Cc4cccs4)c(C)c3)c2cc1OC [Example 700, N-{4-[(6,7-Dimethoxy-4-quinolyl)oxy]-2-methylphenyl}-N′-[2-(2-thienyl)acetyl]thiourea] | inhibition at 0.1 µM [1]: 30%; inhibition at 1 µM [2, 3]: 0%
< 10 nM | – | – | COc1cc2nccc(Oc3ccc(NC(=S)NC(=O)CCCCl)cc3Cl)c2cc1OC [Example 1198, N-(4-Chlorobutanoyl)-N′-{3-chloro-4-[(6,7-dimethoxy-4-quinolyl)oxy]phenyl}thiourea] | IC50 ([2]; h-SCF stimulation): 247 nM
